Laboratory results: US5346913A, “N-iodopropargyl hydantoin compounds, compositions, preparation, and use as antimicrobial agents” (Rohm and Haas Company, priority 1992, dated 1994)
Converted amounts (≈) assume the structure as drawn. Where two headings read alike, the source gives them in different places.

Legend:
Escherichia coli = assay: MIC, broth two-fold serial dilution test, Escherichia coli (Ecol); format: cell-based
Text: (§1) The compounds identified with a prime (') were the non-iodo analogues of the invention compounds, i.e., the compounds of formula III or IV. All data are reported in ppm of active ingredient required to control the respective organism. The indication "No In." means that the compound had no inhibitory activity at 500 ppm which was the maximum tested, and so if the "No In." compound were active, the minimum inhibitory concentration would be above 500 ppm. The comparative tests were not run side-by-side, but were run on different days using the same methods. […] A minimum inhibitory concentration (MIC) value is obtained using a broth, two-fold serial dilution test performed as follows: […] A volume of the stock solution is dispensed into culture media to give an initial starting test concentration of the compound of 500 ppm or 250 ppm. When the test is ready to be done, each vessel in the dilution series, except the first vessel, contains an equal volume of compound free broth. The first vessel contains twice the volume of broth with the starting concentration of test compound. One half of the broth from the first vessel is transferred to the second vessel. After being mixed, one half the resulting volume is removed from the second vessel and transferred to the third vessel. […] Each vessel is then inoculated with a cell suspension of the appropriate test organism. Bacteria are grown in broth and fungi on agar […] is grown in cooling tower media for a time and at a temperature appropriate to the species being tested. At the end of the growth period, the broth is vortexed to disperse the cells. In the case of fungi, the spores are harvested by pipetting water onto the slant and dislodging the spores with a sterile loop. The cell/spore suspension is standardized by controlling incubation time, temperature, and the volume of the diluent. The suspension is then used to inoculate the vessels containing the broth compound. The vessels are then incubated at the appropriate temperature. After the incubation, the vessels are examined for growth/no growth. The MIC is defined as the lowest concentration of compound that results in complete inhibition of growth of the test organism. BACTERIA: Pseudomonas fluorescens (Ps.fl), gram negative; Pseudomonas aerugenosa (Ps.ae), gram negative; Escherichia coli (E.c), gram negative; and Staphylococcus aureus (S.a), gram positive.

TLB, CDM, WLR, SNW, WPM = conditions: in vivo
[1] = system: Pseudoperonospora cubensis; assay: whole plant or invertebrate; format: in vivo; conditions: for percent disease control CDM: in vivo
Pseudomonas aerugenosa = assay: MIC, broth two-fold serial dilution test, Pseudomonas aerugenosa (Psae); format: cell-based
Text: as §1

Staphylococcus aureus = assay: MIC, broth two-fold serial dilution test, Staphylococcus aureus (Saur); format: cell-based
Text: as §1

[2] = system: Pellicularia filamentosa (f. sp. sasiki); assay: whole plant or invertebrate; format: in vivo; conditions: 120 h; read-out: % Control RSB
Septoria nodorum = conditions: in vivo
Piricularia oryzae [3] = assay: whole plant or invertebrate; format: in vivo; conditions: Pyricularia oryzae, read-out: % Control RB
Phytophthora infestans = assay: whole plant or invertebrate; format: in vivo; conditions: for pest or weed control at 50 ppm: read-out: % Control TLB, secondary greenhouse test (Table 5), 50 ppm; for percent disease control TLB: advanced greenhouse test (Table 6), 0.25 kg a.i./ha
[4] = system: Puccinia recondita (f. sp. tritici Races PKB and PLD); assay: whole plant or invertebrate; format: in vivo
[5] = system: Erysiphe graminis (f. sp. tritici); assay: whole plant or invertebrate; format: in vivo; conditions: for percent disease control WPM: in vivo
Aspergillus niger = assay: MIC, broth two-fold serial dilution test, Aspergillus niger (Anig); format: cell-based; conditions: TSB
Text: as §1, with “INDUSTRIAL FUNGI: Aspergillus niger (A.n); Aureobasidium pullulans (A.p)” for “BACTERIA: Pseudomonas fluorescens (Ps.fl), gram negative; Pseudomonas aerugenosa (Ps.ae), gram negative; Escherichia coli (E.c), gram negative; and Staphylococcus aureus (S.a), gram positive.”

Fusarium roseum = assay: microbe, parasite or virus in culture; conditions: Fusarium sambucinum, read-out: % Control FUS
Text: FUS Fusarium roseum (Ascomycete)
Transfers in steps 1 and 2 are done in a laminar flow hood. All 8 fungi and the bacterium used in this test are transferred and maintained on potato dextrose agar plates each week (2 plates/organism). Organisms are used when they are the following ages: a. […] Culture flasks are inoculated with 6 mycelial plugs each (except for Pythium which is inoculated with only 3 plugs) taken from PDA plates. All liquid shaker cultures are used after 2 days growth.
PYU, PHY, RHI and FUS cultures are ground up (2-3 5 second bursts in a blender) and all but Pythium and Phytophthora are filtered through a double layer of sterile cheesecloth to remove large mycelial clumps. Ten ml of the culture solutions of R. solani and F. roseum are added to 90 ml of YSB and 10 ml of the P. capsici is added to 90 ml ASB. […] The inoculum mixtures are placed in microtiter plates using a 12-tipped pipet. 175 μl (single dose) or 100 μl (dose-response test) of inoculum broth is placed in each well of the microtiter plates. The plates with inoculated media are placed in the refrigerator overnight. There are two replications per treatment.
This operation is carried out in a chemistry hood. Six microtiter plates have 245 microliters of sterile water added to their wells ahead of time. 10 Mg a.i. of the compounds are placed in 1 ml 1:1 acetone:methanol. 5 Microliters of this solution (6 microliters in the case of the 50 ppm dose) is pipetted into the microtiter plates containing the sterile water according to the grid. There are 45 compounds and 3 scattered control treatments per plate. There are 2 replicates per treatment. 25 Microliters of solution is transferred to the inoculated plates with a 96 well replicator. The replicator is flame sterilized with alcohol, rinsed with sterile water, and blotted on sterile paper towels between each transfer.

Rhizoctonia solani = assay: microbe, parasite or virus in culture; format: cell-based; conditions: read-out: % Control RHI
Piricularia oryzae [6] = assay: microbe, parasite or virus in culture; format: cell-based; conditions: read-out: % Control PIR
Cochliobolus sativus = assay: In-vitro plant disease test, HEL; format: cell-based; conditions: Bipolaris sorokiniana, read-out: % Control HEL
Xanthomonas campestris = assay: microbe, parasite or virus in culture; format: cell-based; conditions: read-out: % Control XAN
Pythium ultimum = assay: In-vitro plant disease test, PYU; format: cell-based; conditions: Globisporangium ultimum, read-out: % Control PYU
Phytophthora capsici = assay: In-vitro plant disease test, PHY; format: cell-based; conditions: read-out: % Control PHY
[7] = Pseudoperonospora cubensis, in Cucumis sativus, 168 h, read-out: % Control CDM
[8] = Phytophthora infestans, in Solanum lycopersicum, 96 h, read-out: % Control TLB, greenhouse test (Table 4), 200 ppm
[9] = Phytophthora infestans, in Solanum lycopersicum, 96 h
[10] = Phytophthora infestans, in Solanum lycopersicum, 96 h, read-out: % Control TLB, secondary greenhouse test (Table 5), 200 ppm
[11] = Puccinia recondita, 240 h, read-out: % Control WLR
[12] = Blumeria graminis, read-out: % Control WPM

Row | Structure (SMILES) | MIC (Escherichia coli; M9G) | MIC (Escherichia coli; TSB) | percent disease control Average (TLB, CDM, WLR, SNW, WPM) | pest or weed control at 200 ppm [1, 7] | percent disease control CDM [1] | MIC (Pseudomonas aerugenosa; M9G) | MIC (Pseudomonas aerugenosa; TSB) | MIC (Staphylococcus aureus; M9G) | MIC (Staphylococcus aureus; TSB) | pest or weed control at 50 ppm [2] | percent disease control SNW (Septoria nodorum) | pest or weed control at 50 ppm (Piricularia oryzae [3]) | pest or weed control at 200 ppm (Piricularia oryzae [3]) | pest or weed control at 200 ppm (Phytophthora infestans; [8]) | pest or weed control at 50 ppm (Phytophthora infestans; [9]) | percent disease control TLB (Phytophthora infestans) | pest or weed control at 50 ppm [4, 11] | pest or weed control at 200 ppm [4, 11] | pest or weed control at 200 ppm [5, 12] | MIC (Aspergillus niger) | also measured
1 | CC1C(=O)N(c2ccc(Cl)cc2)C(=O)N1CC#CI (centres unmarked) [Compound 2, 1-(3-iodo-2-propynyl)-3-(4-chlorophenyl)-5-methylhydantoin] | > 500 µg/mL | 500 µg/mL (≈ 1290 µM) | 72.4% | 0% | 98.0% | > 500 µg/mL | > 500 µg/mL | > 500 µg/mL | > 500 µg/mL | 0% | 90.0% | 50% | 75% | 0% | 50% | 38.0% | 80% | 85% | 75% | 2 µg/mL (≈ 5.15 µM) | pest or weed control at 200 ppm [2]: 0%; pest or weed control at 200 ppm (Phytophthora infestans; [10]): 75%; % Control WLR ([4]; in vivo): 90%; percent disease control WLR ([4]; in vivo): 83.0%; pest or weed control at 50 ppm [5, 12]: 50%; percent disease control WPM [5]: 53.0%
2 | O=C1N(c2cc(Cl)cc(Cl)c2)C(=O)C2(CCCC2)N1CC#CI [Compound 4, 1-(3-iodo-2-propynyl)-3-(3,5-dichlorophenyl)-5,5-spirocyclopentane-hydantoin] | > 500 µg/mL | > 500 µg/mL | 65.2% | 50% | 100.0% | > 500 µg/mL | > 500 µg/mL | > 500 µg/mL | > 500 µg/mL | 50% | 53.0% | 50% | 50% | 95% | 0% | 30.0% | 0% | 0% | 25% | 16 µg/mL (≈ 34.5 µM) | pest or weed control at 200 ppm [2]: 50%; pest or weed control at 200 ppm (Phytophthora infestans; [10]): 0%; percent disease control WLR ([4]; in vivo): 80.0%; pest or weed control at 50 ppm [5, 12]: 0%; percent disease control WPM [5]: 63.0%
3 | CC1C(=O)N(c2ccc(F)cc2)C(=O)N1CC#CI (centres unmarked) [Compound 3, 1-(3-iodo-2-propynyl)-3-(4-fiuorophenyl)-5-methylhydantoin] | > 500 µg/mL | 250 µg/mL (≈ 672 µM) | 67.8% | 50% | 100.0% | > 500 µg/mL | > 500 µg/mL | > 500 µg/mL | > 500 µg/mL | 0% | 47.0% | 50% | 50% | 0% | 0% | 52.0% | 0% | 95% | 40% | 4 µg/mL (≈ 10.7 µM) | pest or weed control at 200 ppm [2]: 0%; pest or weed control at 200 ppm (Phytophthora infestans; [10]): 95%; percent disease control WLR ([4]; in vivo): 75.0%; pest or weed control at 50 ppm [5, 12]: 50%; percent disease control WPM [5]: 65.0%
4 | CC1(C)C(=O)N(CC#CI)C(=O)N1CC#CI [Compound 11] | 64 µg/mL (≈ 140 µM) |  |  |  |  | 125 µg/mL (≈ 274 µM) |  | 32 µg/mL (≈ 70.2 µM) |  |  |  |  |  |  |  |  |  |  |  | < 4 µg/mL | pest or weed control at 100 ppm [1, 7]: 100%; inhibition of growth at 25 ppm (Fusarium roseum): 0%; inhibition of growth at 50 ppm (Fusarium roseum): 100%; inhibition of growth at 25 ppm (Rhizoctonia solani): 100%; inhibition of growth at 50 ppm (Rhizoctonia solani): 100%; pest or weed control at 100 ppm (Piricularia oryzae [3]): 95%; pest or weed control at 100 ppm (Phytophthora infestans; Phytophthora infestans, in Solanum lycopersicum, 96 h, read-out: % Control TLB, greenhouse test (Table 4), 100 ppm): 0%; pest or weed control at 100 ppm [4, 11]: 50%; inhibition of growth at 25 ppm (Piricularia oryzae [6]): 100%; inhibition of growth at 50 ppm (Piricularia oryzae [6]): 100%; pest or weed control at 100 ppm [5, 12]: 85%; inhibition of growth at 25 ppm (Cochliobolus sativus): 90%; inhibition of growth at 25 ppm (Xanthomonas campestris): 0%; inhibition of growth at 50 ppm (Xanthomonas campestris): 0%
5 | CC1(C)NC(=O)N(CC#CI)C1=O [Compound 12] | 125 µg/mL (≈ 428 µM) | 250 µg/mL (≈ 856 µM) |  | 0% |  | 250 µg/mL (≈ 856 µM) | > 500 µg/mL | 125 µg/mL (≈ 428 µM) | 16 µg/mL (≈ 54.8 µM) |  |  |  | 95% | 0% |  |  |  | 25% | 0% | 8 µg/mL (≈ 27.4 µM) | inhibition of growth at 25 ppm (Pythium ultimum): 100%; inhibition of growth at 25 ppm (Fusarium roseum): 75%; inhibition of growth at 25 ppm (Rhizoctonia solani): 100%; inhibition of growth at 25 ppm (Piricularia oryzae [6]): 90%; inhibition of growth at 25 ppm (Phytophthora capsici): 100%; inhibition of growth at 25 ppm (Xanthomonas campestris): 0%
6 | O=C1N(c2cc(Cl)cc(Cl)c2)C(=O)C2(CCCCC2)N1CC#CI [Compound 5, 1-(3-iodo-2-propynyl)-3-(3,5-dichlorophenyl)-5,5-spirocyclohexane-hydantoin] | > 500 µg/mL | > 500 µg/mL | 69.4% | 40% | 100.0% | > 500 µg/mL | > 500 µg/mL | > 500 µg/mL | > 500 µg/mL | 25% | 72.0% | 50% |  | 95% | 0% | 28.0% | 0% | 0% | 0% | > 500 µg/mL | percent disease control WLR ([4]; in vivo): 80.0%; pest or weed control at 50 ppm [5, 12]: 50%; percent disease control WPM [5]: 67.0%
